Test system: cannabis calli
Test: Elicitation of callus cultures on solid medium, cannabinoid content by HPLC
Type: cell-based, Cannabis sativa
Settings: elicitors compared for inducing secondary metabolites

Row | Compound | cannabinoid production (elicitor effect)
1 | O=C(O)c1ccccc1O [salicylic acid] | positive results
2 | CCCCCC(=O)O [hexanoic acid] | positive results
3 | CC/C=C\CC1C(=O)CCC1CC(=O)OC (stereo not shown) [methyl jasmonate] | positive results
4 | N[C@@H](Cc1ccccc1)C(=O)O [phenylalanine] | positive results
5 | NCCCC(=O)O [GABA] | positive results
6 | N[C@@H](Cc1ccc(O)cc1)C(=O)O [tyrosine] | positive results
7 | O=P(O)(O)CCCl [ethephon] | positive results
